The values below come from patent US20090227616A1, “INHIBITORS OF AKT ACTIVITY” (SMITHKLINE BEECHAM CORPORATION, a corporation, priority 2005, published 2009).

Values after ≈ are worked out from the molar mass of the structure shown.

Series [1] relates to BT474 (human breast carcinoma). The series can be described thus: Methylene Blue Growth Inhibition Assay. The format is cell-based. The following applies: BT-474, 72 h, BT474, 3 days. How it is done: (§1) Tumor cell lines used in this assay were BT474 (human breast carcinoma) and LNCaP (lymph node metastasis of prostate cancer). HFF (normal human foreskin fibroblast) was also included. All cell lines were cultured in RPMI 1640 media (Invitrogen Corporation 22400-071) containing 10% Fetal Bovine Serum (FBS) at 37° C. in a humidified 5% CO2 incubator. Cells were harvested using trypsin/EDTA, counted using a hemacytometer and plated in 96-well tissue culture plates (Costar 35-3075), 100 uL per well, at the following densities: BT474 15,000 cells/well, LNCaP 5,000 cells/well and HFF 5,000 cells/well. 10 mM stocks of compounds in DMSO were serially diluted in DMSO through nine 3-fold dilutions in 96-well plates (Costar Corning 3363), and stored at −80C. The next day, compound dilutions were thawed and 4 uL of each transferred to 662 uL RPMI 1640+100 ug/mL gentamicin, resulting in twice the final required test concentrations. 100 uL of compounds diluted in RPMI 1640 were added to all cell lines. The final concentration of DMSO in all wells, including controls, was 0.3%. Cells were incubated at 37C, 5% CO2 for 3 days. Medium was removed by aspiration. Cell biomass was estimated by staining cells with 80 uL methylene blue (Sigma M9140, 0.5% in 50:50 ethanol:water), and incubating at room temperature for 1 hour. Stain was aspirated and the plates rinsed by immersion in water, then air-dried. Stain was released from cells by adding 100 uL of solubilizing solution (1% N-lauroyl sarcosine, sodium salt, Sigma L5125, in PBS) and incubating at room temperature for at least 30 minutes. Plates were shaken and the optical density at 620 nm was measured on a microplate reader. Percent inhibition of cell growth was calculated relative to vehicle-treated control wells. Concentration of compound that inhibits 50% of cell growth (IC50) was interpolated using non-linear regression (Levenberg-Marquadt) and the equation, y=Vmax*(1−(x̂n/K̂n+x̂n)))+Y2. [Ref: Mager, M. E. (1972) Data Analysis in Biochemistry and Biophysics. New York: Academic Press]

Series [2] relates to HFF (normal human foreskin fibroblast). The experiment in a line: Methylene Blue Growth Inhibition Assay. The series is classed as cell-based. The following applies: 72 h, 3 days. How it is done: as §1
The test system of series [3] is LNCaP (lymph node metastasis of prostate cancer). The experiment in a line: Methylene Blue Growth Inhibition Assay. The following applies: Homo sapiens, 72 h, 3 days. The format is cell-based. On the procedure: as §1
A short description of series [4]: Solubility in 50 mM phosphate buffer at pH 7.4. The following applies: aqueous buffer. The format is physicochemical.

What is called IC50 is the concentration needed to halve the response being measured. A high value points to weaker potency. A word on the solubility: it is the dissolved amount per volume that the medium holds. With `CCn1c(-c2nonc2N)nc2c(C#CC(C)(C)O)ncc(OCC(F)CN)c21` (single isomer, unassigned) [Example 17, 4-[7-[(3-amino-2-(−)-fluoropropyl)oxy]-2-(4-amino-1,2,5-oxadiazol-3-yl)-1-ethyl-1H-imidazo[4,5-c]pyridin-4-yl]-2-methyl-3-butyn-2-ol], the IC50 in series [1] turned out to be 0.022 µM; in series [2], 6.25 µM; in series [3], 0.012 µM. The solubility in series [4] is 92 µM (≈ 37.1 µg/mL).
The corresponding values for `CCn1c(-c2nonc2N)nc2c(C#CC(C)(C)O)ncc(OCCC(N)C3CCSCC3)c21` (single isomer, unassigned; (-)) [Example 14, (−)-4-(2-(4-amino-1,2,5-oxadiazol-3-yl)-7-{[3-amino-3-(tetrahydro-2H-thiopyran-4-yl)propyl]oxy}-1-ethyl-1H-imidazo[4,5-c]pyridin-4-yl)-2-methyl-3-butyn-2-ol] are 0.264 µM, 19.2 µM, 0.056 µM and 151 µM (≈ 73.3 µg/mL).
Consider `CCn1c(-c2nonc2N)nc2c(-c3ccccc3)ncc(OCCCN3CCOCC3)c21` [Compound R, 4-(1-ethyl-7-{[3-(4-morpholinyl)propyl]oxy}-4-phenyl-1H-imidazo[4,5-c]pyridin-2-yl)-1,2,5-oxadiazol-3-amine, reference compound], for which, in series [2], 19.9 µM corresponded to half-maximal inhibition (IC50). In other words, the double-digit micromolar range.
Still for that read-out and setting: the result for `CCn1c(-c2nonc2N)nc2c(-c3ccccc3)ncc(OCC(O)CN3CCOCC3)c21` (stereo not drawn) [Compound S, 1-{[2-(4-amino-1,2,5-oxadiazol-3-yl)-1-ethyl-4-phenyl-1H-imidazo[4,5-c]pyridin-7-yl]oxy}-3-(4-morpholinyl)-2-propanol, reference compound] reads over 30 µM; that for `CCn1c(-c2nonc2N)nc2c(-c3ccccc3)ncc(OCCN3CCOCC3)c21` [Compound T, 4-(1-ethyl-7-([2-(4-morpholinyl)ethyl]oxy)-4-phenyl-1H-imidazo[4,5-c]pyridin-2-yl)-1,2,5-oxadiazol-3-amine, reference compound], 18.9 µM; that for `CCn1c(-c2nonc2N)nc2cncc(OC3CCNCC3)c21` [Compound U, 4-[1-ethyl-7-(piperidin-4-yloxy)-1H-imidazo[4,5-c]pyridine-2-yl]-furazan-3-ylamine, reference compound], 6.47 µM.
On to `CCn1c(-c2nonc2N)nc2c(-c3ccccc3)ncc(OCC3CCCNC3)c21` (stereo not drawn) [Compound V, 4-{1-ethyl-4-phenyl-7-[(3-piperidinylmethyl)oxy]-1H-imidazo-[4,5-c]pyridin-2-yl}-1,2,5-oxadiazol-3-amine, reference compound], for which 0.57 µM corresponded to half-maximal inhibition in series [2] (IC50).
The same measure, in the same setting: with `CCn1c(-c2nonc2N)nc2c(C#CC(C)(C)O)ncc(OCCCCN)c21` [Compound W, 4-[7-[(4-aminobutyl)oxy]-2-(4-amino-1,2,5-oxadiazol-3-yl)-1-ethyl-1H-imidazo[4,5-c]pyridin-4-yl}-2-methyl-3-butyn-2-ol, reference compound] the figure was 22.1 µM; with `CCn1c(-c2nonc2N)nc2c(C#CC(C)(C)O)ncc(OCCCN)c21` [Compound X, 4-{2-(4-amino-1,2,5-oxadiazol-3-yl)-7-[(3-aminopropyl)oxy]-1-ethyl-1H-imidazo[4,5-c]pyridin-4-yl}-2-methyl-3-butyn-2-ol, reference compound], 18.1 µM; with `CCn1c(-c2nonc2N)nc2c(C#CC(C)(C)O)ncc(OCC3CCNCC3)c21` [Compound Y, 4-{2-(4-amino-1,2,5-oxadiazol-3-yl)-1-ethyl-7-[(4-piperidinylmethyl)oxy]-1H-imidazo[4,5-c]pyridin-4-yl}-2-methyl-3-butyn-2-ol, reference compound], over 30 µM.
`CCn1c(-c2nonc2N)nc2c(C#CC(C)(C)O)ncc(OCCCNCCc3ccc(OC)cc3)c21` [Compound Z, 4-(2-(4-amino-1,2,5-oxadiazol-3-yl)-1-ethyl-7-{[3-({2-[4-(methyloxy)phenyl]ethyl}amino)propyl]oxy}-1H-imidazo[4,5-c]pyridin-4-yl)-2-methyl-3-butyn-2-ol, reference compound] displayed an IC50 in series [2] of 5.51 µM.
Consider `CCn1c(-c2nonc2N)nc2c(C#CC(C)(C)O)ncc(OCCCNC3CCCC3)c21` [Example 3, 4-(2-(4-amino-1,2,5-oxadiazol-3-yl)-7-{[3-(cyclopentylamino)propyl]oxy}-1-ethyl-1H-imidazo[4,5-c]pyridin-4-yl)-2-methyl-3-butyn-2-ol], for which the IC50 in series [1] was 0.295 µM; in series [2], over 30 µM; in series [3] it was 0.052 µM. The solubility in series [4] is 210 µM (≈ 95.2 µg/mL).
For the compound `CCn1c(-c2nonc2N)nc2c(C#CC(C)(C)O)ncc(OCC[C@@H](N)C(C)C)c21` [Example 4, 4-[7-{[(3R)-3-amino-4-methylpentyl]oxy}-2-(4-amino-1,2,5-oxadiazol-3-yl)-1-ethyl-1H-imidazo[4,5-c]pyridin-4-yl]-2-methyl-3-butyn-2-ol], the IC50 stood at 0.171 µM in series [1], 8.1 µM in series [2] and 0.036 µM in series [3]. The same compound registered a solubility in series [4] of 206 µM (≈ 88.1 µg/mL).
As to `CCn1c(-c2nonc2N)nc2c(C#CC(C)(C)O)ncc(OCCCNC3CCC3)c21` [Example 5, 4-(2-(4-amino-1,2,5-oxadiazol-3-yl)-7-{[3-(cyclobutylamino)propyl]oxy}-1-ethyl-1H-imidazo[4,5-c]pyridin-4-yl)-2-methyl-3-butyn-2-ol], the IC50 in series [1] is 0.508 µM; in series [2], 25.9 µM; in series [3] it was 0.058 µM. In series [4], this compound displayed a solubility of 86 µM (≈ 37.8 µg/mL).
The matching figures for `CCn1c(-c2nonc2N)nc2c(C#CC(C)(C)O)ncc(OC[C@@H](C)CNC3CC3)c21` [Example 6, 4-(2-(4-amino-1,2,5-oxadiazol-3-yl)-7-{[(2S)-3-(cyclopropylamino)-2-methylpropyl]oxy}-1-ethyl-1H-imidazo[4,5-c]pyridin-4-yl)-2-methyl-3-butyn-2-ol]: 0.593 µM, 11.5 µM, 0.066 µM and 27 µM (≈ 11.9 µg/mL).
The corresponding values for `CCn1c(-c2nonc2N)nc2c(C#CC(C)(C)O)ncc(OCC(C)(C)CN)c21` [Example 7, 4-[7-[(3-amino-2,2-dimethylpropyl)oxy]-2-(4-amino-1,2,5-oxadiazol-3-yl)-1-ethyl-1H-imidazo[4,5-c]pyridin-4-yl]-2-methyl-3-butyn-2-ol] are 0.137 µM, 26.2 µM, 0.031 µM and 209 µM (≈ 86.4 µg/mL).
The matching figures for `CCn1c(-c2nonc2N)nc2c(C#CC(C)(C)O)ncc(OC[C@@H](C)CN)c21` [Example 8, 4-[7-{[(2S)-3-amino-2-methylpropyl]oxy}-2-(4-amino-1,2,5-oxadiazol-3-yl)-1-ethyl-1H-imidazo[4,5-c]pyridin-4-yl]-2-methyl-3-butyn-2-ol]: 0.202 µM, 22.4 µM, 0.053 µM and 141 µM (≈ 56.3 µg/mL).
Turning to `CCn1c(-c2nonc2N)nc2c(C#CC(C)(C)O)ncc(OCC[C@H](C)N)c21` [Example 9, 4-[7-{[(3S)-3-aminobutyl]oxy}-2-(4-amino-1,2,5-oxadiazol-3-yl)-1-ethyl-1H-imidazo[4,5-c]pyridin-4-yl]-2-methyl-3-butyn-2-ol], the IC50 in series [1] came out at 0.504 µM; in series [2], 14.5 µM; in series [3], 0.071 µM. Also, in series [4], the concentration in solution (solubility) was 119 µM (≈ 47.5 µg/mL).
